Results as given in ChEMBL document CHEMBL1122915, “Synthesis and biological activity of carboxylic acid replacement analogues of the potent angiotensin converting enzyme inhibitor 5(S)-benzamido-4-oxo-6-phenylhexanoyl-L-proline” (J Med Chem, 1985).

What follows are compounds tested against T1, Angiotensin-converting enzyme (Rattus norvegicus, UniProt P47820) (assay: In vivo inhibitory activity against Angiotensin I converting enzyme was evaluated in renal hypertensive rats). Conditions: read-out: I50.
T1 sequence (P47820 whole entry): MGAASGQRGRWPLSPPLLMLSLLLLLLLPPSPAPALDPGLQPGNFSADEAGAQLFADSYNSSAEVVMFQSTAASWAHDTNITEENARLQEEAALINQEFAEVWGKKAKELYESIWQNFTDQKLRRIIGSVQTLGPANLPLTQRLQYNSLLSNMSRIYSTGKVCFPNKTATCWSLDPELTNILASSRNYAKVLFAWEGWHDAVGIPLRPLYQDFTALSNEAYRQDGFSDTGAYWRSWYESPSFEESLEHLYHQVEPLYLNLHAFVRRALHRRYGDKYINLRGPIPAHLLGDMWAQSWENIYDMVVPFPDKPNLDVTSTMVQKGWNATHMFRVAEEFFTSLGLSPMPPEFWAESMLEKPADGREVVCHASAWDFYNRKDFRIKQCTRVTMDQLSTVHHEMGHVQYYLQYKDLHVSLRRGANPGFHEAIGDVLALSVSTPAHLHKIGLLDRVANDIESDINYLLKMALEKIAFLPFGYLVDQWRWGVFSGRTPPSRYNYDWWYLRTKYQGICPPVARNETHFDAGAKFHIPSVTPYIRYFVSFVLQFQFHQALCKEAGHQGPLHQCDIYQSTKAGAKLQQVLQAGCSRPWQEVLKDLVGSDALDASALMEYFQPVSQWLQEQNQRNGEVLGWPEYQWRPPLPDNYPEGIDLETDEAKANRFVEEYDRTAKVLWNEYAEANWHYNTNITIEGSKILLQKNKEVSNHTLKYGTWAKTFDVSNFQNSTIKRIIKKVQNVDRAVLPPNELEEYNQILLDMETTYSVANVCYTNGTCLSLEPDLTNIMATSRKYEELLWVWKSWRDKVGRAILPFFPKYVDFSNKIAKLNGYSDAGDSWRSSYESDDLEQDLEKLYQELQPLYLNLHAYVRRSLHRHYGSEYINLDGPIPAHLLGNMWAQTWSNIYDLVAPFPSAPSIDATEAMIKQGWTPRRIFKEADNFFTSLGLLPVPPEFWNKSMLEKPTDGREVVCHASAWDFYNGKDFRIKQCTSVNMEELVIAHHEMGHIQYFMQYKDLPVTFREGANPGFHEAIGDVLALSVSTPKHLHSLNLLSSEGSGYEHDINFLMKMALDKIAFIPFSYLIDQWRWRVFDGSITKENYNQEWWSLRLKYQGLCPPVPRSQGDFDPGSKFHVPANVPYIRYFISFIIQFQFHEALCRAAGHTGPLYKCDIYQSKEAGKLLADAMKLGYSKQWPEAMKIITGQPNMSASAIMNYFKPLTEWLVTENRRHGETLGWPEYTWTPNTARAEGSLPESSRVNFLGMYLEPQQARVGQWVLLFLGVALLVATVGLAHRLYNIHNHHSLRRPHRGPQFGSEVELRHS
Type: organism-based
In the case of `C[C@@H](CS)C(=O)N1CCC[C@H]1C(=O)NO`, the IC50 is reported as 22 nM.
`O=C(O)[C@@H]1CCCN1C(=O)CCS` showed an IC50 of 200 nM.
Work on `O=C(CCS)N1CCCC1P(=O)(O)O` (centres undefined) yielded an IC50 of 1700 nM.
In the case of `C[C@@H](CS)C(=O)N1CCC[C@H]1c1nn[nH]n1`, the IC50 is reported as 260 nM.
